Experimental data as given in patent publication US8574563B2 (Bristol-Myers Squibb Company, priority 2006, dated 2013).

tested on: HCV 1b-377-neo replicon cells; assay: HCV replicon assay, HCV 1b-377-neo replicon cells (1b FRET); type: cell-based, Hepatitis C virus genotype 1b; conditions: HCV 1b-377-neo replicon cells; HCV 1b genotype; read-out: EC50 range against HCV 1b (Table 2, Range)
How it was run: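 Compounds tested in HCV genotype 1b-377-neo replicon cells with a FRET read-out. Cells resistant to a reference NS5A inhibitor through a Y2065H NS5A mutation were run alongside wild-type cells.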

Compound | EC50
CCN(CC)[C@@H](C(=O)N1CCC[C@H]1c1ncc(-c2ccc(-c3ccc(-c4cnc([C@@H]5CCCN5C(=O)C5(NC(=O)OC)CCCC5)[nH]4)cc3)cc2)[nH]1)c1ccccc1 [Example M42, methyl (1-(((2S)-2-(5-(4′-(2-((2S)-1-((2R)-2-(diethylamino)-2-phenylacetyl)-2-pyrrolidinyl)-1H-imidazol-5-yl)-4-biphenylyl)-1H-imidazol-2-yl)-1-pyrrolidinyl)carbonyl)cyclopentyl) carbamate] | 1 to 99 nM

same assay, conditions: Hepatitis C virus, HCV 1b-377-neo replicon cells; HCV 1b genotype; read-out: EC50 range against HCV 1b (Table 2, Range)

Compound | EC50
CNCC(=O)N1CCC[C@H]1c1ncc(-c2ccc(-c3ccc(-c4cnc([C@@H]5CCCN5C(=O)[C@@H](NC(=O)OC)C(C)C)[nH]4)cc3)cc2)[nH]1 [LS20, methyl ((1S)-2-methyl-1-(((2S)-2-(5-(4′-(2-((2S)-1-(N-methylglycyl)-2-pyrrolidinyl)-1H-imidazol-5-yl)-4-biphenylyl)-1H-imidazol-2-yl)-1-pyrrolidinyl)carbonyl)propyl)carbamate] | 0.001 to 0.999 nM
COC(=O)N[C@@H](C(=O)N1CCC[C@H]1c1ncc(-c2ccc(-c3ccc(-c4cnc([C@@H]5CCCN5C(=O)Cc5cccc(Cl)c5)[nH]4)cc3)cc2)[nH]1)c1ccccc1 [Example 84-67, methyl ((1R)-2-((2S)-2-(5-(4′-(2-((2S)-1-((3-chlorophenyl)acetyl)-2-pyrrolidinyl)-1H-imidazol-5-yl)-4-biphenylyl)-1H-imidazol-2-yl)-1-pyrrolidinyl)-2-oxo-1-phenylethyl)carbamate] | 0.001 to 0.999 nM
COC(=O)N[C@H](C(=O)N1[C@@H](c2ncc(-c3ccc(-c4ccc(-c5cnc([C@H]6C[C@H]7C[C@H]7N6C(=O)[C@@H](NC(=O)OC)C(C)C)[nH]5)cc4)cc3)[nH]2)C[C@H]2C[C@H]21)C(C)C [Example M131, methyl ((1S)-1-(((1R,3R,5R)-3-(5-(4′-(2-((1R,3R,5R)-2-((2S)-2-((methoxycarbonyl)amino)-3-methylbutanoyl)-2-azabicyclo[3.1.0]hex-3-yl)-1H-imidazol-5-yl)-4-biphenylyl)-1H-imidazol-2-yl)-2-azabicyclo[3.1.0]hex-2-yl)carbonyl)-2-methylpropyl)carbamate] | 0.001 to 0.999 nM
COC(=O)N[C@H](C(=O)N1CCC[C@H]1c1ncc(-c2ccc(-c3ccc(-c4[nH]c([C@@H]5CCCN5C(=O)[C@@H](NC(=O)OC)[C@@H](C)OC)nc4C(F)(F)F)cc3)cc2)[nH]1)[C@@H](C)OC [Example J42, methyl ((1S,2R)-2-methoxy-1-(((2S)-2-(5-(4′-(2-((2S)-1-(N-(methoxycarbonyl)-O-methyl-L-threonyl)-2-pyrrolidinyl)-4-(trifluoromethyl)-1H-imidazol-5-yl)-4-biphenylyl)-1H-imidazol-2-yl)-1-pyrrolidinyl)carbonyl)propyl)carbamate] | 0.001 to 0.999 nM
O=C([C@H](O)c1ccccc1)N1CCC[C@H]1c1ncc(-c2ccc(-c3ccc(-c4cnc([C@@H]5CCCN5C(=O)[C@H](O)c5ccccc5)[nH]4)cc3)cc2)[nH]1 [Example 2, (1R,1′R)-2,2′-(4,4′-biphenyldiylbis(1H-imidazole-5,2-diyl(2S)-2,1-pyrrolidinediyl))bis(2-oxo-1-phenylethanol)] | 0.001 to 0.999 nM
CN(C)[C@@H](C(=O)N1CCC[C@H]1c1ncc(-c2ccc(-c3ccc(-c4cnc([C@@H]5CCCN5C(=O)[C@@H](c5ccccc5Cl)N(C)C)[nH]4)cc3)cc2)[nH]1)c1ccccc1 [Example 107-35, (1R)-1-(2-chloro-phenyl)-2-((2S)-2-(5-(4′-(2-((2S)-1-((2R)-2-(dimethylamino)-2-phenylacetyl)-2-pyrrolidinyl)-1H-imidazol-5-yl)-4-biphenylyl)-1H-imidazol-2-yl)-1-pyrrolidinyl)-N,N-dimethyl-2-oxoethanamine] | 0.001 to 0.999 nM
COC(=O)N[C@@H](C(=O)N1CCC[C@H]1c1ncc(-c2ccc(-c3ccc(-c4cnc([C@@H]5CCCN5C(=O)OC)[nH]4)cc3)cc2)[nH]1)c1ccccc1 [Example 77, methyl (2S)-2-(5-(4′-(2-((2S)-1-((2R)-2-((methoxycarbonyl)amino)-2-phenylacetyl)-2-pyrrolidinyl)-1H-imidazol-5-yl)-4-biphenylyl)-1H-imidazol-2-yl)-1-pyrrolidinecarboxylate] | 0.001 to 0.999 nM
